The target of this test is T1, 5HT6 human recombinant receptor (Homo sapiens, UniProt P50406).
T1 construct: purchased Receptor Biology; host or cells: HEK-293 cell membranes
The test can be described thus: Binding with Serotonin Receptor 5HT6 ([3H]-LSD radioligand, HEK-293 cell membranes). The note with it: [3H]-LSD 2.7 nM, HEK-293 membranes; for Ki: non-linear regression EBDA/LIGAND; for inhibition at 0.01 µM: compound 10 nM; for inhibition at 0.01 µM / inhibition at 0.1 µM: 60 min, 37° C.; for inhibition at 0.1 µM: compound 100 nM. On the procedure:
Binding with Serotonin Receptor 5HT6
Cell membranes of HEK-293 cells expressing the 5HT6 human recombinant receptor were supplied by Receptor Biology. In said membranes the receptor concentration is 2.18 pmol/mg protein and the protein concentration is 9.17 mg/ml. The experimental protocol follows the method of B. L. Roth et al. [B. L. Roth, S. C. Craigo, M. S. Choudhary, A. Uluer, F. J. Monsma, Y. Shen, H. Y. Meltzer, D. R. Sibley: Binding of Typical and Atypical Antipsychotic Agents to 5-Hydroxytryptamine-6 and Hydroxytriptamine-7 Receptors. The Journal of Pharmacology and Experimental Therapeutics, 1994, 268, 1403] with slight changes. The commercial membrane is diluted (1:40 dilution) with the binding buffer: 50 mM Tris-HCl, 10 mM MgCl2, 0.5 mM EDTA (pH 7.4). The radioligand used is [^3H]-LSD at a concentration of 2.7 nM with a final volume of 200 μl. incubation is initiated by adding 100 μl of membrane suspension, (≈22.9 μg membrane protein), and is prolonged for 60 minutes at a temperature of 37° C. The incubation is ended by fast filtration in a Brandel Cell Harvester through fiber glass filters made by Schleicher & Schuell GF 3362 pretreated with a solution of polyethylenimine at 0.5%. The filters are washed three times with three milliliters of buffer Tris-HCl 50 mM pH 7.4. The filters are transferred to flasks and 5 ml of Ecoscint H liquid scintillation cocktail are added to each flask. The flasks are allowed to reach equilibrium for several hours before counting with a Wallac Winspectral 1414 scintillation counter. Non-specific binding is determined in the presence of 100 μM of serotonin. Tests were made in triplicate. The inhibition constants (Ki, nM) were calculated by non-linear regression analysis using the program EBDA/LIGAND [Munson and Rodbard, Analytical Biochemistry, 1980, 107, 220].

The Ki is the dissociation constant of the complex between target and ligand, obtained from inhibition or displacement. As a reminder, the inhibition is the relative decrease from the control value, in per cent.

T1 sequence (P50406 whole entry): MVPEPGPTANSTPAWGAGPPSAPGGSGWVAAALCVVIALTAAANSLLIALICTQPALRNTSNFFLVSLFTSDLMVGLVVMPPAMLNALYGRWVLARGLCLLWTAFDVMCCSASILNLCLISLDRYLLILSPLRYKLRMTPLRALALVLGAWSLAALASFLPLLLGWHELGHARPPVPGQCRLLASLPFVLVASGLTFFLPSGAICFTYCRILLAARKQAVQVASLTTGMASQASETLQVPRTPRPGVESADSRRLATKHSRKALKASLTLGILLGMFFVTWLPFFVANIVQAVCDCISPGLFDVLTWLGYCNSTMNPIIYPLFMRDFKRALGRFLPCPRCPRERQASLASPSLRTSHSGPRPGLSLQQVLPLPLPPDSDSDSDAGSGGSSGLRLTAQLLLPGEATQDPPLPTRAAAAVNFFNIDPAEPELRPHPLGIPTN

Consider `CCNCCc1c[nH]c2ccc(NS(=O)(=O)c3cccc4ccccc34)cc12` [Example 1, Naphthalene-1-sulfonic acid [3-(2-ethylamino-ethyl)-1H-indol-5-yl]-amide], for which the Ki was found to be 3 nM.
In the case of `CNCCc1c[nH]c2ccc(NS(=O)(=O)c3cccc4ccccc34)cc12` [Example 2, Naphthalene-1-sulfonic acid [3-(2-methylamino-ethyl)-1H-indol-5-yl]-amide], the Ki turned out to be 2.9 nM, the inhibition at 0.01 µM was determined as 83% and the inhibition at 0.1 µM is 91.2%.
As to `CCNCCc1c[nH]c2ccc(NS(=O)(=O)c3ccc4c(Cl)cccc4c3)cc12` [Example 3, 5-Chloro-naphthalene-2-sulfonic acid [3-(2-ethylamino-ethyl)-1H-indol-5-yl]-amide], the Ki was 2 nM, the inhibition at 0.01 µM was determined as 60.1% and the inhibition at 0.1 µM worked out at 82.9%.
For `CNCCc1c[nH]c2ccc(NS(=O)(=O)c3ccc4c(Cl)cccc4c3)cc12` [Example 4, 5-Chloro-naphthalene-2-sulfonic acid [3-(2-methylamino-ethyl)-1H-indol-5-yl]-amide], the Ki worked out at 2.1 ± 1.3 nM, the inhibition at 0.01 µM is 64.9% and the inhibition at 0.1 µM was 73.5%.
For `NCCc1c[nH]c2ccc(NS(=O)(=O)c3cccc4ccccc34)cc12` [Example 5, Naphthalene-1-sulfonic acid [3-(2-amino-ethyl)-1H-indol-5-yl]-amide] the same measures were 26.4 nM, 41.6% and 76.9%.
Consider `CNCCc1cn(C)c2ccc(NS(=O)(=O)c3ccc4c(Cl)cccc4c3)cc12` [Example 6, 5-Chloro-naphthalene-2-sulfonic acid [1-methyl-3-(2-methylamino-ethyl)-1H-indol-5-yl]-amide], for which the inhibition at 0.01 µM stood at 39.7% and the inhibition at 0.1 µM was found to be 79.8%.
Turning to `NCCc1c[nH]c2ccc(NS(=O)(=O)c3ccc4ccccc4c3)cc12` [Example 7, Naphthalene-2-sulfonic acid [3-(2-amino-ethyl)-1H-indol-5-yl]-amide], the Ki turned out to be 7.1 ± 1.1 nM, the inhibition at 0.01 µM stood at 66% and the inhibition at 0.1 µM was found to be 84.6%.
On to `NCCc1c[nH]c2ccc(NS(=O)(=O)c3ccc4c(Cl)cccc4c3)cc12` [Example 8, 5-Chloro-naphthalene-2-sulfonic acid [3-(2-amino-ethyl)-1H-indol-5-yl]-amide], for which the Ki was found to be 1.4 nM, the inhibition at 0.01 µM is 65.6% and the inhibition at 0.1 µM turned out to be 86.1%.
Take `Cn1cc(CCN)c2cc(NS(=O)(=O)c3ccc4c(Cl)cccc4c3)ccc21` [Example 9, 5-Chloro-naphthalene-2-sulfonic acid [3-(2-amino-ethyl)-1-methyl-1H-indol-5-yl]-amide]: the inhibition at 0.01 µM is 34.1% and the inhibition at 0.1 µM amounted to 78%.

Source of the values: patent US20100120886A1, “ARYL-SUBSTITUTED SULFONAMIDES FOR THE TREATMENT OF COGNITIVE OR FOOD INGESTION RELATED DISORDERS” (LABORATORIOS DEL DR. ESTEVE, S.A., priority 2007, published 2010).
